Data: PMC10301845, “Characterization of a Novel M4 PAM PET Radioligand [11C]PF06885190 in Nonhuman Primates (NHP)” (Molecules, 2023)

Assay: Radiometabolite analysis in NHP blood plasma (gradient HPLC)
Type: in vivo, cynomolgus monkey
Protocol: Radiometabolites in NHP blood plasma were analyzed following a previously published method. A reverse-phase HPLC system with an UV absorbance detector (ƛ = 254 nm) coupled to a radio detector was used to determine the percentages of radioactivity corresponding to [^11C]PF06885190 and its radioactive metabolites during whole PET measurement. Arterial blood samples (0.7–1.5 mL) were obtained using an automated blood sampling system from the monkey at different time points such as 2, 5, 15, 30 and 60 min after injection of [^11C]PF06885190 following a previously described method. Plasma was separated from collected blood by centrifuging at 4000 rpm for 2 min. The obtained plasma was diluted with 1.4 times volume of acetonitrile and then centrifuged at 6000 rpm for 4 min. The extract was separated from the pellet and was diluted with water (3 mL) before being injected into the HPLC system. The HPLC system was coupled to an Agilent binary pump (Agilent 1200 series) which was connected to a manual injection valve (7725i, Rheodyne), a 5.0 mL loop, and a radiation detector (Oyokoken, S-2493Z) housed in a shield of 50 mm thick lead. A semi-preparative reverse-phase, an ACE 5µm C18 HL column ([…]), was used to achieve the chromatographic separation (Figure S4A,B, Supplementary Material) of the radiometabolites from the unchanged parent compound [^11C]PF06885190 by gradient elution. Acetonitrile (A) and 0.1 M amoniumformate (B) were used as the mobile phase at flow rate 5.0 mL/min, according to the following program: 0−4.0 min, (A/B) 40:60 → 90:10 v/v; 4.0−6.0 min, (A/B) 90:10 v/v. a radioactive peak corresponding to [^11C]PF06885190 eluted from the HPLC column was integrated and the area was expressed as a percentage of the sum of the areas of all detected radioactive compounds. To calculate the recovery of radioactivity from the system, the eluate from the HPLC column was measured in a capintec dose calibrator and divided by the amount of total radioactivity injected into the HPLC.

- parent compound in plasma (5 min after injection): approximately 95%
- parent compound in plasma (60 min, after pretreatment with CVL-231): about 20%
- parent compound in plasma (60 min, after pretreatment with donepezil): about 30%
- parent compound in plasma (60 min, baseline condition): about 20%
SMILES: Cc1nc(N[11CH3])c2c(c1C)CN(C(=O)C[C@H]1C[C@@H]1c1ccc(F)nc1)C2 [[^11C]PF06885190]
